From PubChem BioAssay (NCI)
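Assay format: 96-well plates, 48-hour exposure. TGI is the concentration that stops growth completely.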

Key:
Assay in all cases: growth of human tumour cells (NCI), 48 h
[1] = test system: 786-0 renal
[2] = test system: A498 renal
[3] = test system: A549 NSCLC
[4] = test system: ACHN renal
[5] = test system: CAKI-1 renal
[6] = test system: CCRF-CEM leukemia
[7] = test system: COLO 205 colon
[8] = test system: DLD-1 colon
[9] = test system: DMS 114 small cell lung
[10] = test system: DMS 273 small cell lung
[11] = test system: EKVX NSCLC
[12] = test system: HCC-2998 colon
[13] = test system: HCT-116 colon
[14] = test system: HCT-15 colon
[15] = test system: HL-60(TB) leukemia
[16] = test system: HOP-18 NSCLC
[17] = test system: HOP-62 NSCLC
[18] = test system: HOP-92 NSCLC
[19] = test system: HT29 colon
[20] = test system: IGROV1 ovarian
[21] = test system: K-562 leukemia
[22] = test system: KM12 colon
[23] = test system: KM20L2 colon
[24] = test system: LXFL 529 NSCLC
[25] = test system: M14 melanoma
[26] = test system: M19-MEL melanoma
[27] = test system: MALME-3M melanoma
[28] = test system: MOLT-4 leukemia
[29] = test system: NCI-H226 lung
[30] = test system: NCI-H23 lung
[31] = test system: NCI-H460 lung
[32] = test system: NCI-H522 lung
[33] = test system: OVCAR-3 ovarian
[34] = test system: OVCAR-4 ovarian
[35] = test system: OVCAR-5 ovarian
[36] = test system: OVCAR-8 ovarian
[37] = test system: RPMI-8226 leukemia
[38] = test system: RXF 393 renal
[39] = test system: SF-268 CNS
[40] = test system: SF-295 CNS
[41] = test system: SF-539 CNS
[42] = test system: SK-MEL-2 melanoma
[43] = test system: SK-MEL-5 melanoma
[44] = test system: SK-OV-3 ovarian
[45] = test system: SN12C renal
[46] = test system: SNB-19 CNS
[47] = test system: SNB-75 CNS
[48] = test system: SNB-78 CNS
[49] = test system: SR leukemia
[50] = test system: SW-620 colon
[51] = test system: TK-10 renal
[52] = test system: U251 CNS
[53] = test system: UACC-257 melanoma
[54] = test system: UACC-62 melanoma
[55] = test system: UO-31 renal
[56] = test system: XF 498 CNS
[57] = test system: LOX IMVI melanoma
[58] = test system: SK-MEL-28 melanoma

Measured: TGI

C#CC1/C(=C\C(=O)OC)CCCC1O (stereo not given)
not listed: [57] | [58]
> 100 µM: all other assays above

CCOC(=O)c1nc2c(OC)nn(O)cc-2c1[N+](=O)[O-]
36.4 µM: [11] | [25] | [36]
30.1 µM: [23]
75.1 µM: [28]
73.3 µM: [41]
46.4 µM: [15]
30.7 µM: [1]
42.4 µM: [55]
56.2 µM: [37]
36.9 µM: [32]
44.6 µM: [48]
32.4 µM: [27]
34.9 µM: [16] | [34] | [42]
34.7 µM: [45]
29.1 µM: [50]
36.8 µM: [21]
30.8 µM: [52]
89.2 µM: [26]
> 100 µM: [3] | [17] | [20] | [40] | [44]
31 µM: [4] | [24]
33.5 µM: [53]
30 µM: [57] | [51]
50.9 µM: [6]
35.2 µM: [33]
29.3 µM: [19] | [38]
40.5 µM: [54]
29.9 µM: [58]
62.8 µM: [46]
49.2 µM: [31]
33.7 µM: [8] | [35]
61.9 µM: [7]
28.2 µM: [22]
36.2 µM: [2] | [14]
38 µM: [13]
29.6 µM: [56]
79.6 µM: [29]
48.4 µM: [9]
94.9 µM: [39]

Cc1ccc(C)c(NC(=O)c2cccc([N+](=O)[O-])c2O)c1
81.6 µM: [27]
61.5 µM: [22]
81 µM: [13]
82.1 µM: [26]
57.6 µM: [4]
56.9 µM: [48]
67.3 µM: [56]
41.3 µM: [18]
67.2 µM: [32]
41.5 µM: [40]
63.8 µM: [47]
63 µM: [53]
37.8 µM: [38]
82.9 µM: [54]
80.9 µM: [2]
51.9 µM: [55]
47.6 µM: [9]
53.5 µM: [57]
80.8 µM: [34]
31.1 µM: [7]
68.4 µM: [31]
25.2 µM: [43]
77.5 µM: [10]
68.8 µM: [29]
49 µM: [30]
47.1 µM: [17]
not listed: [42] | [49] | [51]
> 100 µM: all other assays above

COC1C(OC(=S)Nc2ccccc2)c2ccccc2N1C(C)=O (stereo not given)
92.2 µM: [18]
not listed: [27] | [29] | [32] | [35] | [39] | [43] | [44] | [51] | [57]
> 100 µM: all other assays above
